The target in this experiment is T1, Axl (Homo sapiens, UniProt P30530).
T1 sequence (P30530 26-894): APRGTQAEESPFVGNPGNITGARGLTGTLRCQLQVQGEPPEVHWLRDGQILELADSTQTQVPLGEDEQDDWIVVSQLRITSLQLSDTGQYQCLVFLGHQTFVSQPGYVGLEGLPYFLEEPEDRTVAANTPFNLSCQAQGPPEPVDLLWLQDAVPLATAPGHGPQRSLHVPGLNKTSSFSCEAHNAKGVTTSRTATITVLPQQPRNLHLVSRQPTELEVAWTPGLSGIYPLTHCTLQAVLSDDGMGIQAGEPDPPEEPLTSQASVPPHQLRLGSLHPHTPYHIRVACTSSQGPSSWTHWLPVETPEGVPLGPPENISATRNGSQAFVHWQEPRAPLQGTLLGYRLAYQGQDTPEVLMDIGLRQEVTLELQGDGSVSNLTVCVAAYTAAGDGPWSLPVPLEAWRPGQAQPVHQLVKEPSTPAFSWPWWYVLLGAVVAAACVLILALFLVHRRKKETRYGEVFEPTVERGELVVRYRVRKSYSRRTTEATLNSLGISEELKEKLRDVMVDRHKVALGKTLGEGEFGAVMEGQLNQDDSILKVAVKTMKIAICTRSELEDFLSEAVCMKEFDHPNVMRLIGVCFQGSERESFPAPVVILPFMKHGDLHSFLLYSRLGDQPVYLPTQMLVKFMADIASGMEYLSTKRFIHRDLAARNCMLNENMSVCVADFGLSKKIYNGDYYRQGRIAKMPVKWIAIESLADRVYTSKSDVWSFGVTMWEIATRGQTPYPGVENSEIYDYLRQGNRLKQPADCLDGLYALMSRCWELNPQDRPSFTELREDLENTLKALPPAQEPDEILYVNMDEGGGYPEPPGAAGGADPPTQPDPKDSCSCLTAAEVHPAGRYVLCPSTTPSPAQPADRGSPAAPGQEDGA
Put plainly: Axl NanoBRET intracellular kinase assay (intracellular binding, Cell Binding). The arrangement: host or cells: HEK-293. The following applies: HEK-293 cells transfected with Axl-NanoLuc fusion vector; 0.35 μM K-5 NanoBRET tracer. In outline:
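Intracellular binding measured as loss of BRET (610 nm/450 nm) when compounds displace 0.35 μM K-5 tracer from Axl-NanoLuc in transfected HEK-293 cells.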
A general note: BRET reads energy transfer from a luciferase to a nearby fluorophore.
As a reminder, the IC50 is the concentration needed to halve the response being measured. A lower IC50 goes with greater potency. For `Cc1cc(-c2n[nH]c3ncc(-c4ccc5c(c4)CC[C@@H](N4CCCC4)CC5)cc23)cc(F)c1C(N)=O` [Example 83, (S)-2-Fluoro-6-methyl-4-(5-(7-(pyrrolidin-1-yl)-6,7,8,9-tetrahydro-5H-benzo[7]annulen-2-yl)-1H-pyrazolo[3,4-b]pyridin-3-yl)benzamide], the IC50 is less than 0.1 µM.
The figure for `NC(=O)c1ccc(-c2n[nH]c3ncc(-c4ccc5c(c4)CC[C@@H](N4CCCC4)CC5)cc23)cc1Cl` [Example 84, (S)-2-Chloro-4-(5-(7-(pyrrolidin-1-yl)-6,7,8,9-tetrahydro-5H-benzo[7]annulen-2-yl)-1H-pyrazolo[3,4-b]pyridin-3-yl)benzamide] is less than 0.1 µM; for `O=C(c1ccc(-c2n[nH]c3ncc(-c4ccc5c(c4)CC[C@@H](N4CCCC4)CC5)cc23)cc1Cl)N1CCC(O)CC1` [Example 85, (S)-(2-Chloro-4-(5-(7-(pyrrolidin-1-yl)-6,7,8,9-tetrahydro-5H-benzo[7]annulen-2-yl)-1H-pyrazolo[3,4-b]pyridin-3-yl)phenyl)(4-hydroxypiperidin-1-yl)methanone] it is less than 0.1 µM; for `COc1cc(-c2n[nH]c3ncc(-c4ccc5c(c4)CCC(C)(N4CCC[C@H]4C)CC5)cc23)ccc1S(N)(=O)=O` (stereo partly drawn) [Example 87, 2-Methoxy-4-(5-(7-methyl-7-((R)-2-methylpyrrolidin-1-yl)-6,7,8,9-tetrahydro-5H-benzo[7]annulen-2-yl)-1H-pyrazolo[3,4-b]pyridin-3-yl)benzenesulfonamide] it is 0.1 to 1 µM.
The figure for `C[C@@H]1CCCN1C1(C)CCc2ccc(-c3cnc4[nH]nc(-c5ccc(C(=O)NC6CCOCC6)cc5)c4c3)cc2CC1` (stereo partly drawn) [Example 88, 4-(5-(7-Methyl-7-((R)-2-methylpyrrolidin-1-yl)-6,7,8,9-tetrahydro-5H-benzo[7]annulen-2-yl)-1H-pyrazolo[3,4-b]pyridin-3-yl)-N-(tetrahydro-2H-pyran-4-yl)benzamide] is less than 0.1 µM; for `COC1CCN(C(=O)c2ccc(-c3n[nH]c4ncc(-c5ccc6c(c5)CCC(C)(N5CCC[C@H]5C)CC6)cc34)cc2)CC1` (stereo partly drawn) [Example 89, (4-Methoxypiperidin-1-yl)(4-(5-(7-methyl-7-((R)-2-methylpyrrolidin-1-yl)-6,7,8,9-tetrahydro-5H-benzo[7]annulen-2-yl)-1H-pyrazolo[3,4-b]pyridin-3-yl)phenyl)methanone] it is less than 0.1 µM; for `Cc1cc2c(cc1-c1cnc3[nH]nc(-c4ccc(C(C)(C)O)c(Cl)c4)c3c1)CCC(N1CCC[C@H]1C)CC2` (stereo partly drawn) [Example 90, 2-[2-Chloro-4-(5-{3-methyl-7-[(2R)-2-methylpyrrolidin-1-yl]-6,7,8,9-tetrahydro-5H-benzo[7]annulen-2-yl}-1H-pyrazolo[3,4-b]pyridin-3-yl)phenyl]propan-2-ol] it is 0.1 to 1 µM.
In the case of `NS(=O)(=O)c1ccc(-c2n[nH]c3ncc(-c4ccc5c(c4)CC[C@@H](N4CCCC4)CC5)cc23)cc1Cl` [Example 91, (S)-2-Chloro-4-(5-(7-(pyrrolidin-1-yl)-6,7,8,9-tetrahydro-5H-benzo[7]annulen-2-yl)-1H-pyrazolo[3,4-b]pyridin-3-yl)benzenesulfonamide], the half-inhibitory concentration (IC50) is less than 0.1 µM.
With `NS(=O)(=O)c1ccc(-c2n[nH]c3ncc(-c4ccc5c(c4)CCN(C4CCCC4)CC5)cc23)cc1Cl` [Example 92, 2-Chloro-4-(5-(3-cyclopentyl-2,3,4,5-tetrahydro-1H-benzo[d]azepin-7-yl)-1H-pyrazolo[3,4-b]pyridin-3-yl)benzenesulfonamide], the IC50 lay in the range of 0.1 to 1 µM.
The figure for `C[C@@H]1CCCN1C1(C)CCc2ccc(-c3cnc4[nH]nc(-c5ccc(S(N)(=O)=O)c(Cl)c5)c4c3)cc2CC1` (stereo partly drawn) [Example 93, 2-Chloro-4-(5-(7-methyl-7-((R)-2-methylpyrrolidin-1-yl)-6,7,8,9-tetrahydro-5H-benzo[7]annulen-2-yl)-1H-pyrazolo[3,4-b]pyridin-3-yl)benzenesulfonamide] is less than 0.1 µM.

The values above are taken from US20240246967A1, “AXL COMPOUNDS” (ARCUS BIOSCIENCES, INC., priority 2021, published 2024).
